Consider 15 compounds from patent EP0348513A1, “STYRENE DERIVATIVE, POLYSTYRENE DERIVATIVE COMPRISING THE SAME, PROCESS FOR PREPARING SAID POLYSTYRENE DERIVATIVE, AND ULTRAVIOLET ABSORBER COMPRISING SAID STYRENE DERIVATIVE OR POLYSTYRENE DERIVATIVE” (Earth Chemical Co., Ltd., priority 1987, dated 1989).

Data set [1] is described as follows: Ultraviolet absorption spectrum (spectrophotometer, quartz cell, optical path 10 mm). Type of data set: physicochemical. As to the method:
The measurement was carried out by using a spectrophotometer (UV-200S, made by SHIMADZU CORPORATION) as an ethanol solution of the sample having a suitable concentration with a quartz cell having an optical path of 10 mm. Also, the wavelength at the maximum absorption and the molar extinction coefficient were found from the results of the measurement as the ultraviolet absorptive properties. The results are shown below. • Wavelength at the maximum absorption: 332 nm Molar extinction coefficient: 44,000
The measurement was carried out by using a spectrophotometer (UV-200S, made by SHIMADZU CORPORATION), as a dimethylformamide solution of the sample having a suitable concentration and with a quartz cell having an optical path of 10 mm.
The measurement was carried out by using a spectrophotometer (UV-200S, made by SHIMADZU CORPORATION), as a dimethylformamide solution of the sample having a suitable concentration, with a quartz cell having an optical path of 10 mm.

The nature of data set [2]: Transmittance of ultraviolet rays through a coated polyethylene sheet. Type of data set: physicochemical. To be noted: wavelength of 330 nm. As to the method: There was dissolved 2.8 g of p-vinylbenzaldehyde 4-carboxymethyl-2-methylthiosemicarbazone in 1.5 g of triethanolamine and 23.7 g of water. The solution was applied onto a polyethylene sheet having a thickness of 0.5 mm (which was prepared in the same manner as the preparation process for the'control pieces in Example 11) in an amount of 2.0 mg/cm^2, and dried at room temperature to give a ultraviolet absorbent sheet.
The obtained ultraviolet absorbent sheet and untreated polyethylene sheet were cut into pieces having a size of 1 cm X 4 cm, respectively. The untreated polyethylene sheet was used as control piece, and transmittance of ultraviolet rays at a wavelength of 330 nm was measured by using a spectrophotometer. As the result, the transmittance of ultraviolet rays of the ultraviolet absorbent sheet was not more than 0.1 %. Accordingly, it was confirmed that not less than 99.9 % of ultraviolet rays were absorbed under the above condition.

For the next data set, the system named is guinea pigs. The experiment in a line: Sunscreen effect against ultraviolet irradiation of the skin. Type of data set: in vivo. The note with it: sunscreen ointment or lotion containing the derivative, about 2 mg per 1 cm^2, ultraviolet rays 10 minutes, judged after 24 hours with the naked eyes; control area turned red. On the procedure: Hair of. the notal of three guinea pigs was cut, and the drug (ointment) was applied in an amount of about 2 mg per 1 cm^2. Then, ultraviolet rays were irradiated for 10 minutes by a fluorescent light (FL-20SE, made by TOSHIBA CORPORATION) from a height of 10 cm from the notal.. On the other hand, as a control area, a base prepared without mixing the sunscreening agent was applied, and treatments were carried out in the same manner as.above. The judgement was conducted after 24 hours with the naked eyes.
Hair of the notal of three guinea pigs was cut, and the drug (ointment) was applied in an amount of about 2 mg per 1 cm^2.. Then, ultraviolet rays were irradiated for 10 minutes by a fluorescent light (FL-20SE, made by TOSHIBA CORPORATION) from a height of 10 cm from the notal. On the other hand, as a control area, a base prepared without mixing the sunscreening agent was applied, and treatments were carried out in the same manner as above. The judgement was conducted after 24 hours with the naked eyes.

In a further data set the test system is skin of a quinea pig. The data set can be described thus: Percutaneous absorption, Franz diffusion cell. Type of data set: in vitro ADME. The note with it: 1 % aqueous solution, 33°C, 20 hours. As to the method:
The skin of a quinea pig was peeled, washed with physiological saline and then set in a percutaneous absorption apparatus which was made in accordance with the description in Franz, T. J, J. Invest, Dermatol, 64, 190, 1975, by using a diffusion cell. The sample room was filled with 0.5 mi of a 1 % aqueous solution of the polystyrene derivative, and the acceptor was filled with physiological saline. After maintaining at 33°C for 20 hours while stirring with a magnetic stirrer, the physiological saline in the acceptor was taken out, and the ultraviolet absorbency was measured. In the same manner as above, ultraviolet absorbency was measured, using water alone as a negative control substance and a 1 % aqueous solution of p-aminobenzoic acid as a positive control substance. […] To the contrary, the spectrum of the positive control substance was shown the corresponding to an amount of 87.0 ppm of the compound.
The skin of a quinea pig was peeled, washed with physiological saline and then set in a percutaneous absorption apparatus which was made in accordance with the description in Franz, T. J, J. Invest, Dermatol, 64, 190, 1975, by using a diffusion cell. […] After maintaining at 33°C for 20 hours while stirring with a magnetic stirrer, the physiological saline in the acceptor was taken out, and the ultraviolet absorbency was measured. […]

The mark [3] stands for this setting: commercially available sunscreening agent, at the first (shorter) maximum.
Setting [4] is: commercially available sunscreening agent, at the second (longer) maximum.
Setting [5] is: commercially available sunscreening agent, first (shorter) maximum.
Setting [6] is: commercially available sunscreening agent, second (longer) maximum.
Where [7] appears, read: ethanol solution, at the maximum absorption.
Where [8] appears, read: N,N-dimethylformamide solution, at the maximum absorption.
Setting [9] is: commercially available sunscreening agent, solvent not stated.

Values joined by “and” are separate entries in the source; they are usually repeats but may differ in a detail not shown here. Identical values can stand only once.

`Cc1ccc(O)c(-n2nc3ccccc3n2)c1` [2-(2'-hydroxy-5'-methylphenylbenzotriazole), reference compound]: the molar extinction coefficients in data set [1] (setting [3]) is 12,000; in data set [1] (setting [4]), 13,000. Also, the “wavelengths at the maximum absorption” value in data set [1] (setting [5]) was determined as 297 nm; in data set [1] (setting [6]), 337 nm.
For `COc1ccc(C(=O)c2ccccc2)c(O)c1` [2-hydroxy-4-methoxybenzophenone, reference compound], in that order: 13,000, 8,200, 287 nm and 326 nm.
`C=Cc1ccc(C=NN(C)C(=S)NCC(=O)OC)cc1` [Example 1, p-vinylbenzaldehyde 4-methoxycarbonylmethyl-2-methylthiosemicarbazone]: the “Wavelength at the maximum absorption” value in data set [1] (ethanol solution) is given as 332 nm. For the same compound, the Molar extinction coefficient in data set [1] (setting [7]) is on record as 44,000.
Regarding `C=Cc1ccc(C=NN(C)C(=S)NCC(=O)O)cc1` [Example 2, p-vinylbenzaldehyde 4-carboxymethyl-2-methylthiosemicarbazone], the “Wavelength at the maximum absorption” value in data set [1] (ethanol solution) was 332 nm. In data set [1] (setting [7]), the Molar extinction coefficient is 44,000. Also, the ultraviolet rays absorbed entry in data set [2] (same coated sheet) is “not less than 99.9%”. The “transmittance of ultraviolet rays” value in data set [2] (triethanolamine/water solution applied at 2.0 mg/cm^2 on 0.5 mm polyethylene sheet) is “not more than 0.1%”.
For `C=Cc1ccc(C=NN(C)C(=O)NCC(=O)OCC)cc1` [Example 3, p-vinylbenzaldehyde 4-ethoxy carbonylmethyl-2-methylsemicarbazone], the “sunscreen effect (color of the applied area compared with an area not irradiated)” value in the data set with guinea pigs is reported as “the color in the area on which the sunscreen lotion was applied was not changed”. Also, the “Wavelength at the maximum absorption” value in data set [1] (ethanol solution) was determined as 311 nm. Further, the Molar extinction coefficient in data set [1] (setting [7]) is listed as 33,000.
Take `C=Cc1ccc(C=NN(CC(=O)O)C(=S)NC)cc1` [Example 4, vinylbenzaldehyde 2-carboxymethyl-4-methylthiosemicarbazone]: the “Wavelength at the maximum absorption” value in data set [1] (ethanol solution) is recorded as 315 nm. Further, in data set [1] (setting [7]), the Molar extinction coefficient is 34,000.
Take `C=Cc1ccc(C=NN(CCCC(=O)O)C(=S)NC)cc1` [Example 5, p-vinylbenzaldehyde 2-(y-carboxypropyl)-4-methylthiosemicarbazone]: the “Wavelength at the maximum absorption” value in data set [1] (ethanol solution) came out at 332 nm. Moreover, the Molar extinction coefficient in data set [1] (setting [7]) is 38,000.
The corresponding values for `C=Cc1ccc(C=NN(CC(=O)OCC)C(=S)N(C)C)cc1` [Example 6, p-vinylbenzaldehyde 2-ethoxycarbonylmethyl-4,4-dimethylthiosemicarbazone] are 381 nm and 34,000.
The corresponding values for `C=Cc1ccc(C=NN(C)C(=S)NC)cc1` [Example 7, vinylbenzaldehyde 2,4-dimethylthiosemicarbazone] are 315 nm and 34,000.
The corresponding values for `C=Cc1ccc(C=NN(C)C(=S)N(C)C)cc1` [Example 8, p-vinylbenzaldehyde 2,4,4-trimethylthiosemicarbazone] are 331 nm and 29,000.
Take `C=Cc1ccc(C=NN(CCO)C(=S)NC)cc1` [Example 9, p-vinylbenzaldehyde 2-(β-hydroxyethyl)-4-methylthiosemicarbazone]: the “Wavelength at the maximum absorption” value in data set [1] (ethanol solution) came to 322 nm. For the same compound, the Molar extinction coefficient in data set [1] (setting [7]) is recorded as 40,000.
With `C=Cc1ccc(C=NN(C(=S)NC)c2ccccc2)cc1` [Example 11, p-vinylbenzaldehyde 4-methyl-2-phenylthiosemicarbazone], the “Wavelength at the maximum absorption” value in data set [1] (N,N-dimethylformamide solution) is given as 335 nm. Moreover, the Molar extinction coefficient in data set [1] (setting [8]) was 38,000.
The corresponding values for `C=Cc1ccc(C=NN(C)C(=S)Nc2ccccc2)cc1` [Example 12, p-vinylbenzaldehyde 2-methyl-4-phenylthiosemicarbazone] are 338 nm and 40,000.
With `CC1CC(OC(=O)c2ccccc2O)CC(C)(C)C1` (stereo not drawn) [homomenthyl salicylate, reference compound], in data set [1] (setting [9]), the Molar extinction coefficient is reported as 4,400 and the “Wavelength at the maximum absorption” value came to 308 nm.
Turning to `Nc1ccc(C(=O)O)cc1` [p-aminobenzoic acid], in the data set with skin of a quinea pig, the “amount of the compound in the acceptor corresponding to the spectrum” value is 87.0 ppm and 93.0 ppm.
